# Assay results published in PubChem BioAssay AID651996 (Sanford-Burnham Center for Chemical Genomics, 2013).
# Active and inactive are the calls of the source.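 How the source made its calls: active means compounds whose half-maximal inhibitory concentration of the SKN-1 reporter ratio in worms is 20 µM or lower; inactive means the rest.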
# System: C. elegans VP596 Pgst-4::GFP/RFP ratio, acrylamide-induced, 24 h
# Assay: structure-activity of worm SKN-1 blockers – whole organism, GFP/RFP fluorescence ratio, strain VP596, SAR follow-up (AID 651996)
row,Compound,IC50
1,COc1cc(CNC(C)(C)CO)cc(Br)c1OCc1ccc(Cl)cc1,26.2 µM (inactive)
2,Brc1ccc(-c2nc(-c3ccccc3)no2)o1,8.64 µM
3,CC(C)c1ccc(C(=O)Nc2ccc(CN3CCOCC3)cc2)cc1,4.74 µM
4,O=C(Nc1nc(-c2ccc(Cl)s2)cs1)c1ccco1,8.95 µM
5,Cc1ccc(-c2noc(-c3cccs3)n2)cc1,10.7 µM
6,Cc1oc(-c2ccc(-c3ccccc3)cc2)nc1CN(C)C1CCOC1 (configuration not stated),15.5 µM
7,Fc1ccc(COc2ccc(-c3nnco3)cc2)c(Cl)c1,2.25 µM
8,O=C(Nc1nc2c(ccc3ccccc32)s1)c1ccco1,16.9 µM
9,CSc1cccc(NC(=O)c2cccc3cccnc23)c1,9.32 µM
10,Brc1ccc(CSc2nnc(-c3cccnc3)o2)cc1,19.1 µM
11,Cc1ccc(N=C/C(C(=O)C(F)(F)F)=C(\O)c2ccco2)cc1Cl,33.1 µM (inactive)
12,c1ccc(-c2csc(Nc3ccccn3)n2)cc1,8.17 µM
13,O=C(/C=C/c1ccccc1)Nc1ccc(CN2CCOCC2)cc1,14.8 µM
14,Cc1cc(OCc2cccc(Cl)c2)c(C)cc1CN1CCOCC1,7.19 µM
15,Fc1ccc(COc2ccc(-c3nnco3)cc2)cc1,4.14 µM
16,O=C(Nc1nc(-c2ccc(Cl)s2)cs1)c1cccs1,58.9 µM (inactive)
17,CCOc1cc(CNC2CCCC2)cc(Cl)c1OCc1ccccc1,9.86 µM
18,O=C(/C=C/Nc1ccc(F)c(F)c1)c1cccs1,14.3 µM
19,O=C(/C=C/Nc1ccc(F)cc1F)c1ccco1,23.3 µM (inactive)
20,CCOc1cc(CNCCSc2nnnn2C)cc(Br)c1OCc1ccc(F)cc1,17 µM

row,Compound,IC50
1,O=C(Nc1nc(-c2ccc(Cl)s2)cs1)c1ccccc1,13 µM
2,O=C(/C=C/Nc1ccccc1F)c1cccs1,23.2 µM (inactive)
3,COc1cc(CNC(C)c2ccccc2)cc(Br)c1OCc1ccc(F)cc1 (configuration not stated),> 64 µM (inactive)
4,c1ccc2oc(SCc3nc4ccccc4s3)nc2c1,15.5 µM
5,c1ccc2sc(SCc3ccc(-c4nnco4)cc3)nc2c1,10.5 µM
6,Brc1ccc(CSc2nnc(-c3ccco3)o2)cc1,7.06 µM
7,O=C(Nc1ccc(CN2CCOCC2)cc1)c1cc2ccccc2o1,18 µM
8,COc1cc(CNC2CCCC2)cc(Cl)c1OCc1ccc(F)cc1,7.21 µM
9,O=C(/C=C/c1cccs1)c1ccc(Br)cc1,12.4 µM
10,O=C(/C=C/c1ccc(Br)cc1)c1ccc(NC2=NCCCS2)cc1,9.32 µM
11,CCOC(=O)c1c(-c2ccc(-c3ccccc3)cc2)csc1NC(=O)CNCCN(C)C,10.9 µM
12,CCOC(=O)Nc1nc(-c2ccc(F)cc2F)cs1,4.63 µM
13,c1ccc(-c2csc(-c3ccncc3)n2)cc1,7.34 µM
14,COc1ccc(C(=O)Nc2nc(-c3cccs3)cs2)cc1,28.9 µM (inactive)
15,O=C(Nc1nc(-c2ccccc2)cs1)c1cccs1,16.9 µM
16,Cc1nc2ccccc2cc1OCc1ccc(F)cc1,7.88 µM
17,Cc1ccccc1-c1noc(-c2cccs2)n1,6.42 µM
18,CCOc1cc(CNC2CCCC2)cc(Cl)c1OCc1ccc(F)cc1,4.49 µM
19,Clc1ccc(Nc2nc(-c3cccs3)cs2)nc1,8.93 µM

# More lines, now with the values ahead:
row,IC50,Compound
1,22.7 µM (inactive),Cc1ccc(CSc2nnc(-c3ccco3)o2)cc1
2,13.8 µM,Brc1ccc(-c2nnc(-c3ccco3)o2)cc1
3,14.3 µM,Clc1ccc(-c2nnc(-c3ccco3)o2)cc1
4,1.58 µM,Fc1ccc(-c2csc(-c3ccncc3)n2)cc1
5,3.81 µM,Fc1ccc(-c2csc(Nc3ccccn3)n2)cc1
6,7.94 µM,Clc1ccccc1-c1nc(-c2ccncc2)no1
7,24.9 µM (inactive),Clc1ccccc1-c1nnc(-c2ccccc2Cl)o1
8,13.8 µM,c1ccc(Nc2nc(-c3cccs3)cs2)nc1
9,6.84 µM,O=C(Nc1nccs1)c1ccc2ccccc2n1
10,0.64 µM,Clc1ccc(-c2nnc(-c3ccccc3)o2)c(Cl)c1
11,11.8 µM,CCc1ccc(-c2nc(-c3ccncc3)no2)cc1
12,21.8 µM (inactive),Cc1ccc(Nc2nc(-c3cccs3)cs2)nc1
13,8.44 µM,O=C(/C=C/Nc1ccc(F)cc1F)c1cccs1
14,12.2 µM,O=C(/C=C/Nc1ccc(Br)cc1F)c1ccco1
15,12.5 µM,O=C(/C=C/Nc1ccc(F)c(Cl)c1)c1ccco1
16,7.39 µM,c1ccc(SCc2cc(-c3ccccc3)no2)cc1
17,9.89 µM,CCOc1ccc(-c2nc(-c3cccnc3)no2)cc1
18,6.15 µM,c1ccc(-c2nc(-c3ccncc3)no2)cc1
